# Measured values taken from paper PMC6256351, “Stereoselective Synthesis of the Isomers of Notoincisol A: Assigment of the Absolute Configuration of this Natural Product and Biological Evaluation” (Journal of Natural Products, 2018).
# Molecular target: T1, PPARγ (peroxisome proliferator-activated receptor gamma) (Homo sapiens, UniProt P37231)
# T1 construct: gene PPARG; full-length human PPARγ
# T1 sequence (P37231 1-505): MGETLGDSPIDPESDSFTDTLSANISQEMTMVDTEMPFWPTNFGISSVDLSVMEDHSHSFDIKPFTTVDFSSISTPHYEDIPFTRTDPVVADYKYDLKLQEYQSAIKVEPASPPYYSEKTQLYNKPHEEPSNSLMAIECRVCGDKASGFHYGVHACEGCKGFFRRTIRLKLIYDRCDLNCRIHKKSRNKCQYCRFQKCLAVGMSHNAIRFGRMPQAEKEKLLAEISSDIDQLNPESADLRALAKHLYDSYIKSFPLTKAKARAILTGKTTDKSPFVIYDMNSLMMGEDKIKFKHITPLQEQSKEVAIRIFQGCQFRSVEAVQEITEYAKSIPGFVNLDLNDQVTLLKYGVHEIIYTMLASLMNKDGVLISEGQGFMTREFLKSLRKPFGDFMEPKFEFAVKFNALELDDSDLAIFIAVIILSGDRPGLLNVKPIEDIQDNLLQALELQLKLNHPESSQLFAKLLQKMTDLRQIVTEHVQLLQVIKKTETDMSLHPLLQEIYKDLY
# Assay: luciferase reporter gene transactivation in HEK293 cells transfected with PPARγ
# Format: cell-based
smiles,measurement,value
"C=C[C@@H](O)C#CC#C[C@H](/C=C\CCCCCCC)OC(=O)/C=C/c1ccc(O)c(OC)c1 [3R,8S-1, (3R,8S)-Notoincisol A]",EC50,1200 nM
